target: streptavidin (Streptomyces avidinii, UniProt P22629); assay: biochemical; format: binding; settings: not given
Experimental: (§1) LNA5 and LNA3 conjugates were hybridized by mixing 25 µL of LNA5 (2 µM) and 25 µL of LNA3 (2 µM) conjugates in water and heating to 70 °C for 5-10 min. After cooling down the solution to room temperature, 950 µL of 1x PBS was added to the LNA solution. The hybridized LNA conjugates were then tested via fluorescence polarization.
If the LNA conjugates were clicked together, they were diluted to 1 µM, 50 µL of a clicked conjugate was diluted with 950 µL 1x PBS and tested by fluorescence polarization.
(§2) Separately, a 16-point serial dilution of protein was performed in PBS in PCR tubes. 4 µL of the 50 nM conjugate was mixed with 4 µL of each protein dilution in black 384-well plates to a final volume of 8 µL. The plate was incubated for 30 min in the dark and centrifuged briefly to remove bubbles. Fluorescence anisotropy was measured at 535 nm. Data was fitted using Prism 10. Raw data from experimental FP measurements can be found in Supplementary Information, section 7.1.
7.1. Fluorescence Polarization
as §1, with “mQ” for “water”, “polarization experiment.” for “polarization.”
If the LNA conjugates were clicked together, they were diluted to 1 µM, 50 µL of a clicked conjugate could then be taken, diluted with 950 µL 1x PBS and tested via fluorescence […]
All other off-DNA fluoresceinated compounds were diluted to 50 nM in 1xPBS containing 5% […]
as §2, with “Data was obtained and fitted using” for “Data was fitted using”, “Prism 10.” for “Prism 10. Raw data from experimental FP measurements can be found in Supplementary Information, section 7.1.”

Row | Compound | Kd [µM]
1 | CC(C)C[C@H](C(=O)N1Cc2cc(C(=O)N[C@@H](CSCC(N)=O)C(=O)NCCCCCC(=O)N[C@@H](CCCCNC(=O)c3ccc4c(c3)C(=O)OC43c4ccc(O)cc4Oc4cc(O)ccc43)C(N)=O)sc2C1)n1cc(CN2CCC[C@H]2C(=O)N[C@H](CC2CCCCC2)C(=O)N[C@@H](CSCC(N)=O)C(N)=O)nn1 [Compound 7-L0] | 0.173
2 | CC(C)C[C@@H]1C(=O)N2Cc3cc(sc3C2)C(=O)N[C@H](C(=O)NCCCCCC(=O)N[C@@H](CCCCNC(=O)c2ccc3c(c2)C(=O)OC32c3ccc(O)cc3Oc3cc(O)ccc32)C(N)=O)CSCCS(=O)(=O)CS(=O)(=O)CCSC[C@@H](C(N)=O)NC(=O)[C@@H](CC2CCCCC2)NC(=O)[C@@H]2CCCN2Cc2cn1nn2 [Compound 7-L1] | > 5
3 | CC(C)C[C@@H]1C(=O)N2Cc3cc(sc3C2)C(=O)N[C@H](C(=O)NCCCCCC(=O)N[C@@H](CCCCNC(=O)c2ccc3c(c2)C(=O)OC32c3ccc(O)cc3Oc3cc(O)ccc32)C(N)=O)CSCc2ccc(cc2)CSC[C@@H](C(N)=O)NC(=O)[C@@H](CC2CCCCC2)NC(=O)[C@@H]2CCCN2Cc2cn1nn2 [Compound 7-L2] | > 5
4 | CC(C)C[C@@H]1C(=O)N2Cc3cc(sc3C2)C(=O)N[C@H](C(=O)NCCCCCC(=O)N[C@@H](CCCCNC(=O)c2ccc3c(c2)C(=O)OC32c3ccc(O)cc3Oc3cc(O)ccc32)C(N)=O)CSCc2cccc(c2)CSC[C@@H](C(N)=O)NC(=O)[C@@H](CC2CCCCC2)NC(=O)[C@@H]2CCCN2Cc2cn1nn2 [Compound 7-L3] | > 5
5 | CC(C)C[C@@H]1C(=O)N2Cc3cc(sc3C2)C(=O)N[C@H](C(=O)NCCCCCC(=O)N[C@@H](CCCCNC(=O)c2ccc3c(c2)C(=O)OC32c3ccc(O)cc3Oc3cc(O)ccc32)C(N)=O)CSC/C=C/CSC[C@@H](C(N)=O)NC(=O)[C@@H](CC2CCCCC2)NC(=O)[C@@H]2CCCN2Cc2cn1nn2 [Compound 7-L4] | > 5
6 | CC(C)C[C@@H]1C(=O)N2Cc3cc(sc3C2)C(=O)N[C@H](C(=O)NCCCCCC(=O)N[C@@H](CCCCNC(=O)c2ccc3c(c2)C(=O)OC32c3ccc(O)cc3Oc3cc(O)ccc32)C(N)=O)CSC/C=C\CSC[C@@H](C(N)=O)NC(=O)[C@@H](CC2CCCCC2)NC(=O)[C@@H]2CCCN2Cc2cn1nn2 [Compound 7-L5] | > 5
7 | NC(=O)CSC[C@H](NC(=O)[C@@H](CC1CCCCC1)NC(=O)[C@@H]1CCCN1Cc1cn([C@H](CC2CCC2)C(=O)N2Cc3cc(C(=O)N[C@@H](CSCC(N)=O)C(=O)NCCCCCC(=O)N[C@@H](CCCCNC(=O)c4ccc5c(c4)C(=O)OC54c5ccc(O)cc5Oc5cc(O)ccc54)C(N)=O)sc3C2)nn1)C(N)=O [Compound 8-L0] | 0.118

target: T1, placental alkaline phosphatase (PLAP) (Homo sapiens, UniProt P05187); assay: PLAP inhibition assay (pNPP substrate); format: biochemical; settings: off-DNA; pH 10 (activation buffer pH 9.8); read-out: IC50 (determined fit)
T1 construct: AviTag (biotinylated in vitro by BirA); 6xHis-tag; made in house; host or cells: Chinese hamster ovary (CHO) cells
T1 sequence (P05187 23-506 limits assumed): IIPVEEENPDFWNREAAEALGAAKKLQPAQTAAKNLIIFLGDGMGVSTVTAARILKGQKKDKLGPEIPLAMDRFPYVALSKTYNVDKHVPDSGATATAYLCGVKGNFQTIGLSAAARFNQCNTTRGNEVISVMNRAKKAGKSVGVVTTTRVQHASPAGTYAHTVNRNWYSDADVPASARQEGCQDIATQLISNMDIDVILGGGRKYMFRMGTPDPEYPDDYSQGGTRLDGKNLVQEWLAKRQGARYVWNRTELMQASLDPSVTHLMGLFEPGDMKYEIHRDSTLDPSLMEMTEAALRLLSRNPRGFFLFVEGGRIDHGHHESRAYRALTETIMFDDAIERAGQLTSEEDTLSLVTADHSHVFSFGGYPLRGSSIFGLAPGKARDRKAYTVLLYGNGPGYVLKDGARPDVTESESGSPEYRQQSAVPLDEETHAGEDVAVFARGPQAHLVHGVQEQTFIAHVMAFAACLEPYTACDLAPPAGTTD
Experimental: For the PLAP inhibition assay, 500 µM of inhibitor was used for a 16-point serial dilution in 10% DMSO/activation buffer in PCR tubes. Separately, a 12.5 nM solution of PLAP and a 4.5 mM solution of p-nitrophenylphosphate (pNPP) were prepared in activation buffer (see below). 8 µL of each inhibitor dilution was mixed with 16 µL of enzyme solution and 16 µL of pNPP solution and gently mixed. The assay was allowed to develop in the dark for 30 min (activation buffer pH10: 150 mM diethanolamine, 1 mM MgCl2, 60 mM ZnCl2 in water, pH 9.8) or 1 hour (activation buffer pH9: 150 mM Tris, 1 mM MgCl2, 60 mM ZnCl2 in water, pH 9.0). 50 µL of 2 M NaOH was then added to quench the reaction. Readout was performed to detect 405 nm vs 620 nm absorption. Data was fitted using Prism 10. Raw data from PLAP measurements can be found in Supplementary Information, section 7.2.2.
Human alpha-thrombin was obtained from Prolytix (Haematologic Technologies) - BioConnect Website and used in FP and inhibition assays. Biotinylated thrombin used for selections was obtained from Sigma Aldrich.
The recombinant human placental alkaline phosphatase (hPLAP) labelled with AviTag™ and 6xHis-tag was produced in Chinese hamster ovary (CHO) cells and was purified by Ni-NTA affinity chromatography and size-exclusion chromatography. The in-vitro biotinylation of the protein is mediated by BirA protein system. “Early-fraction” is the final material used for fluorescence polarization and inhibition experiments.
Figure S32: Quality characterization of recombinant hPLAP. A. The size exclusion chromatogram of purifying recombinant hPLAP expressed in CHO cells after Ni-NTA affinity chromatography purification and biotinylation. […] The absorbances at 450nm were measured with/without the presence of hPLAP and/or human PLAP antibody. […]
Protocol was adapted from Habeshian et al. 12. […] Fluorescence (excitation at 360 nm, emission at 465 nm) was measured every 3 min for 30 min. […] Data was measured in triplicate. […]
and gently mixed. […] Readout was performed to detect 405 nm vs 620 nm absorption. […]

Row | IC50 [nM] | Compound
8 | 21000 | NC(=O)CSC[C@H](NC(=O)C[C@H](Cc1ccccc1Cl)NC(=O)[C@@H](N)Cc1ccccc1Cl)C(=O)NCCCCCC(=O)N[C@@H](CCCCNC(=S)Nc1ccc2c(c1)C(=O)OC21c2ccc(O)cc2Oc2cc(O)ccc21)C(N)=O [Compound 21]

same assay, conditions: off-DNA; pH not printed with the values, pH 9 implied by b30; mean of n=3; read-out: IC50

Row | IC50 [nM] | Compound
9 | 2500 | NC(=O)CSC[C@H](NC(=O)C[C@H](Cc1ccccc1Cl)NC(=O)[C@@H](N)Cc1ccccc1Cl)C(=O)NCCCCCC(=O)N[C@@H](CCCCNC(=S)Nc1ccc2c(c1)C(=O)OC21c2ccc(O)cc2Oc2cc(O)ccc21)C(N)=O [Compound 21]
10 | 1430 | C#CCN1CCC[C@H]1C(=O)N[C@H](CC(=O)N[C@@H](CSC1CC(=O)N(CCN2C(=O)CC(SC[C@H](NC(=O)C[C@H](Cc3ccccc3Cl)NC(=O)[C@@H](N)Cc3ccccc3Cl)C(=O)NCCCCCC(=O)N[C@@H](CCCCNC(=S)Nc3ccc4c(c3)C(=O)OC43c4ccc(O)cc4Oc4cc(O)ccc43)C(N)=O)C2=O)C1=O)C(N)=O)Cc1ccccc1Cl (stereo partly shown) [Compound 22]

— paper PMC11972359, “Flexibility-tuning of dual-display DNA-encoded chemical libraries facilitates cyclic peptide ligand discovery” (Nature Communications, 2025)
